20 molecules from ChEMBL document CHEMBL1121451, “Neuroleptic activity in 5-aryltetrahydro-gamma-carbolines” (J Med Chem, 1980) can be followed below.

Assay [1] relates to Canis familiaris. In words: The ability of compound to prevent the emesis induced by apomorphine (0.1 mg/kg, iv) in dogs at the specified dosage of 3.2 mg/kg (sesame oil). Format: functional, Canis lupus familiaris.
For assay [2], the system named is Rattus norvegicus. The assay can be described thus: Tested for neuroleptic activity by measuring antagonism of d-amphetamine sulfate at intraperitoneal dosage of 5 mg/kg, after 5 hours in rat. Format: functional. As to conditions: ip.
For assay [3], the system named is Rattus norvegicus. In words: Tested for neuroleptic activity by measuring antagonism of d-amphetamine sulfate at intraperitoneal dosage of 5 mg/kg, after 24 hours in rat; Range is 1.0-32. The settings on record: ip. Format: functional.
Assay [4] is filed under the species Rattus norvegicus. The assay can be described thus: Inhibition of amphetamine induced stereotypy in rats; pretreated 1 hr before amphetamine. It counts as functional.
Assay [5] relates to Rattus norvegicus. The assay can be described thus: Tested for neuroleptic activity by measuring antagonism of d-amphetamine sulfate at intraperitoneal dosage of 5 mg/kg, after 1 hour in rat; Range is 32-56. It counts as functional. As to conditions: ip.
Assay [6] relates to Rattus norvegicus. The assay can be described thus: Tested for neuroleptic activity by measuring antagonism of d-amphetamine sulfate at intraperitoneal dosage of 5 mg/kg, after 24 hours in rat. It counts as functional. The settings on record: ip.
Assay [7] relates to Rattus norvegicus. The assay can be described thus: Tested for neuroleptic activity by measuring antagonism of d-amphetamine sulfate at intraperitoneal dosage of 5 mg/kg, after 5 hours in rat; Range is 3.2-10. It counts as functional. The settings on record: ip.
Assay [8] has as its system Rattus norvegicus. In words: Tested for neuroleptic activity by measuring antagonism of d-amphetamine sulfate at intraperitoneal dosage of 5 mg/kg, after 1 hour in rat; Range is 1.0-3.2. It counts as functional. The settings on record: ip.
Assay [9] concerns Canis familiaris. In words: The ability of compound to prevent the emesis induced by apomorphine (0.1 mg/kg, iv) in dogs at the specified dosage of 2.0 mg/kg (1 N saline); Range is 1-2. Format: functional, Canis lupus familiaris.
Assay [10] concerns Rattus norvegicus. In words: Tested for neuroleptic activity by measuring antagonism of d-amphetamine sulfate at intraperitoneal dosage of 5 mg/kg, after 24 hours in rat; Range is 3.2-10. As to conditions: ip. It counts as functional.
In assay [11] the test system is Rattus norvegicus. The assay can be described thus: Tested for neuroleptic activity by measuring antagonism of d-amphetamine sulfate at intraperitoneal dosage of 5 mg/kg, after 5 hours in rat; Range is 0.32-1.0. It counts as functional. The settings on record: ip.
The test system of assay [12] is Rattus norvegicus. The assay can be described thus: Tested for neuroleptic activity by measuring antagonism of d-amphetamine sulfate at intraperitoneal dosage of 5 mg/kg, after 1 hour in rat; Range is 0.32-1.0. Format: functional. As to conditions: ip.
Assay [13] is filed under the species Rattus norvegicus. The assay can be described thus: animal or person. The settings on record: ip, 5 h.
Description: tested for neuroleptic activity by measuring antagonism of d-amphetamine sulfate at intraperitoneal dosage of 5 mg/kg, after 5 hours in rat
For assay [14], the species on record is Rattus norvegicus. The assay can be described thus: animal or person. As to conditions: ip, 24 h.
Description: tested for neuroleptic activity by measuring antagonism of d-amphetamine sulfate at intraperitoneal dosage of 5 mg/kg, after 24 hours in rat
Assay [15] is filed under the species Rattus norvegicus. In words: animal or person. The settings on record: ip, 1 h.
Description: tested for neuroleptic activity by measuring antagonism of d-amphetamine sulfate at intraperitoneal dosage of 5 mg/kg, after 1 hour in rat
In assay [16] the test system is Rattus norvegicus. The assay can be described thus: Tested for neuroleptic activity by measuring antagonism of d-amphetamine sulfate at intraperitoneal dosage of 5 mg/kg, after 24 hours in rat; Range is 1.0-3.2. It counts as functional. The settings on record: ip.
Assay [17] deals with Rattus norvegicus. In words: Tested for neuroleptic activity by measuring antagonism of d-amphetamine sulfate at intraperitoneal dosage of 5 mg/kg, after 5 hours in rat; Range is 1.0-3.2. It counts as functional. The settings on record: ip.
For assay [18], the system named is Rattus norvegicus. The assay can be described thus: Tested for neuroleptic activity by measuring antagonism of d-amphetamine sulfate at intraperitoneal dosage of 5 mg/kg, after 1 hour in rat; Range is 0.1-0.32. Format: functional. As to conditions: ip.
In assay [19] the test system is Canis familiaris. The assay can be described thus: The ability of compound to prevent the emesis induced by apomorphine (0.1 mg/kg, iv) in dogs at the specified dosage of 2.0 mg/kg (1 N saline). Format: functional, Canis lupus familiaris.
Assay [20] has as its system Canis familiaris. The assay can be described thus: The ability of compound to prevent the emesis induced by apomorphine (0.1 mg/kg, iv) in dogs at the specified dosage of 3.2 mg/kg (sesame oil); Range is 8-9. It counts as functional, Canis lupus familiaris.
For assay [21], the system named is Rattus norvegicus. The assay can be described thus: Tested for neuroleptic activity by measuring antagonism of d-amphetamine sulfate at intraperitoneal dosage of 5 mg/kg, after 24 hours in rat; Range is 10-32. It counts as functional. The settings on record: ip.
The subject of assay [22] is Rattus norvegicus. The assay can be described thus: Tested for neuroleptic activity by measuring antagonism of d-amphetamine sulfate at intraperitoneal dosage of 5 mg/kg, after 5 hours in rat; Range is 0.1-0.32. Format: functional. As to conditions: ip.
The test system of assay [23] is Rattus norvegicus. In words: Tested for neuroleptic activity by measuring antagonism of d-amphetamine sulfate at intraperitoneal dosage of 5 mg/kg, after 24 hours in rat; Range is 0.32-1.0. Format: functional. As to conditions: ip.

As to `CCCCCCCCCCCCCCCCCC(=O)OC(CCCN1CCc2c(c3cc(F)ccc3n2-c2ccc(F)cc2)C1)c1ccc(F)cc1` (stereo unspecified), in assay [1], the Protection came out at 0 days.

For `OC(CCCN1CCc2c(c3cc(F)ccc3n2-c2ccc(Cl)cc2)C1)c1ccc(F)cc1` (stereo unspecified), the ED50 (as a rule, the dose at which the effect has come halfway, by size or by number of responders) was over 32 mg/kg in assay [2], 1 mg/kg in [3] and over 32 mg/kg in assay [4].

In [5], `CN1CCc2[nH]c3ccc(Cl)cc3c2C1` gave a 50% effective dose (ED50) of 32 mg/kg.

In assay [1], `CC(=O)OC(CCCN1CCc2c(c3cc(F)ccc3n2-c2ccc(F)cc2)C1)c1ccc(F)cc1` (stereo unspecified) gave a Protection of 0 days.

Consider `O=C(CCCN1CCc2[nH]c3ccc(F)cc3c2C1)c1ccc(F)cc1`, for which the ED50 in [6] is over 32 mg/kg; in assay [7] it was 3.2 mg/kg; in assay [8], 1 mg/kg.

On to `CCCCCCC(=O)OC(CCCN1CCc2c(c3cc(F)ccc3n2-c2ccc(F)cc2)C1)c1ccc(F)cc1.Cl` (stereo unspecified), for which, in [9], the Protection is 1 days.

The molecule `CN1CCc2c(c3cc(Cl)ccc3n2C)C1.Cl` came in with an ED50 in [5] of 32 mg/kg.

On to `Cl.Fc1ccc(CCCCN2CCc3c(c4cc(F)ccc4n3-c3ccc(F)cc3)C2)cc1`, for which the figures for the median effective dose (ED50) in assay [10], in assay [11] and in assay [12] were 3.2 mg/kg, 0.32 mg/kg and 0.32 mg/kg, respectively.

As for `Cl.O=C(CCN1CCc2c(c3cc(F)ccc3n2-c2ccc(F)cc2)C1)c1ccc(F)cc1`, the ED50 in assay [13], in assay [14] and in [15] was over 32 mg/kg throughout.

On to `Cl.O=C(CCCN1CCc2c(c3cc(F)ccc3n2-c2ccc(F)cc2)C1)c1ccc(F)cc1`, for which the ED50 in assay [16], in [17] and in [8] was 1 mg/kg throughout.

`Cl.OC(CCCN1CCc2c(c3cc(F)ccc3n2-c2ccc(F)cc2)C1)c1ccccc1F` (stereo unspecified): the ED50 is 1 mg/kg in assay [17], over 3.2 mg/kg in assay [6] and 0.1 mg/kg in assay [18].

As to `CCCCCCCCCC(=O)OC(CCCN1CCc2c(c3cc(F)ccc3n2-c2ccc(F)cc2)C1)c1ccc(F)cc1.Cl` (stereo unspecified), in assay [19], the Protection amounted to 0 days.

With `Cl.OC(CCCN1CCc2c(c3cc(F)ccc3n2-c2ccccc2)C1)c1ccc(F)cc1` (stereo unspecified), the 50% effective dose (ED50) amounted to 3.2 mg/kg in [10], 1 mg/kg in assay [17] and 1 mg/kg in assay [8].

In assay [20], `CCCCC(=O)OC(CCCN1CCc2c(c3cc(F)ccc3n2-c2ccc(F)cc2)C1)c1ccc(F)cc1.Cl` (stereo unspecified) showed a Protection of 8 days.

On to `CN1CCc2c(c3cc(F)ccc3n2-c2ccc(F)cc2)C1.Cl`, for which the results for the ED50 in [6], in assay [7] and in assay [8] were over 10 mg/kg, 3.2 mg/kg and 1 mg/kg, respectively.

On to `Cl.OC(CCCN1CCc2c(c3cc(F)ccc3n2-c2ccc(F)cc2)C1)c1ccccc1` (stereo unspecified), for which the ED50 was 0.32 mg/kg in assay [11], over 3.2 mg/kg in assay [6] and 0.32 mg/kg in assay [12].

As to `Cc1ccc(C(O)CCCN2CCc3c(c4cc(F)ccc4n3-c3ccc(F)cc3)C2)cc1.Cl` (stereo unspecified), the median effective dose (ED50) is 1 mg/kg in assay [17], over 10 mg/kg in assay [6] and 0.1 mg/kg in assay [18].

On to `Cl.OC(CCCN1CCc2c(c3cc(F)ccc3n2-c2ccc(F)cc2)C1)c1cccc(F)c1` (stereo unspecified), for which the ED50 is 1 mg/kg in assay [17], 10 mg/kg in assay [21] and 0.32 mg/kg in assay [12].

For the molecule `OC(CCCN1CCc2c(c3cc(F)ccc3n2-c2ccc(F)cc2)C1)c1ccc(F)cc1` (stereo unspecified) [FLUTROLINE], the median effective dose (ED50) in assay [22] was found to be 0.1 mg/kg; in [18], 0.1 mg/kg; in assay [23], 0.32 mg/kg.

Take `CN1CCN(CC/C=C2/c3ccccc3Sc3ccc(S(=O)(=O)N(C)C)cc32)CC1` [THIOTHIXENE]: the ED50 is 0.32 mg/kg in assay [11], over 17.8 mg/kg in assay [6] and 0.32 mg/kg in [12].
